Experimental findings from publication PMC6416395, “B1.12: a novel peptide interacting with the extracellular loop of the EBV oncoprotein LMP1” (Scientific Reports, 2019) are described below.

To fix the notation:
B2: B1 peptide (first extracellular loop of LMP1) (peptide)
peptide: CMSDWTGG
notes: first extracellular loop of latent membrane protein 1 (LMP1), Epstein-Barr virus; Made on Rink amide resin, so the C-terminus may be an amide (surmised); also called target B1; B1 loop of LMP1; source: synthetic peptide (solid-phase Fmoc chemistry, RP-HPLC purified)
B3: B1.12 peptide (peptide)
peptide: ACPLDLRSPCG
notes: peptide selected by phage display from the Ph.D.-C7C library against the B1 loop peptide of LMP1; Made on Rink amide MBHA resin, so the C-terminus may be an amide (surmised); also called selected peptide B1.12; source: synthetic peptide (solid-phase Fmoc chemistry, RP-HPLC purified)

Assay [1] concerns LMP1 negative cells (HeLa/Gpt). The assay can be described thus: Cellular uptake by flow cytometry, LMP1 negative cells. Format: cell-based. The settings on record: FITC-labeled peptide 100 μM, 24 hours. Here is the method: (§1) The cellular uptake of the FITC labeled B1.12 peptide/unrelated peptide was analyzed by flow cytometry. C666.1, HeLa/LMP1, and HeLa/Gpt cells, were seeded at a density of 4 × 10^5 cells/mL at 37 °C for 24 hours, and then incubated with 100 μM of both FITC-labeled peptides for 24 hours. Cells were washed three times, trypsinized, centrifuged at 1700 rpm for 5 minutes and then resuspended in 0.35 mL of PBS. The fluorescence associated to the cells was measured using LSR Fortessa X-20 (Becton Dickinson) for HeLa/LMP1 or Attune NxT Flow Cytometer (Thermofisher) cytometer for C666.1 and HeLa/Gpt cells.
(In general: Flow cytometry measures light scatter and fluorescence of single cells or particles in a stream.)

The subject of a further assay is C666.1 cells. The assay can be described thus: Fluorescence microscopy, C666.1. The class given is cell-based. The settings on record: 10 µM FITC-labeled peptide, (1 hour elsewhere in the source), fixed C666.1 cells. As to the method:
To further investigate the fixation of the peptide on C666.1 cells, fluorescence microscopy was performed. […] After being washed with PBS, the fixation of LMP1 was detected by Alexa-fluor 405 labeled secondary antibody (1/100). HeLa/Gpt cells were also stained as described above to serve as negative control. Images were analyzed using an EVOS Floid Cell Imaging Station (Life Technologies).

The test system of another assay is HeLa/Gpt cells. The assay can be described thus: Fluorescence microscopy, HeLa/Gpt. The class given is cell-based. Conditions: 10 µM FITC-labeled peptide, HeLa/Gpt negative control. As to the method: To further investigate the fixation of the peptide on C666.1 cells, fluorescence microscopy was performed. Approximately 1 × 10^6 cells were washed 3 times with PBS, fixed with 4% parafolmaldehyde for 15 minutes, blocked by 5 mg/mL BSA for 1 hour, and incubated with 10 μM FITC labeled B1.12 peptide or anti-LMP1 antibody (1/500 Dako) for 1 hour at room temperature. After being washed with PBS, the fixation of LMP1 was detected by Alexa-fluor 405 labeled secondary antibody (1/100). HeLa/Gpt cells were also stained as described above to serve as negative control. Images were analyzed using an EVOS Floid Cell Imaging Station (Life Technologies).

The test system of assay [2] is LMP1 positive cells (C666.1, HeLa/LMP1). The assay can be described thus: Cellular uptake by flow cytometry, LMP1 positive cells. The class given is cell-based. The settings on record: FITC-labeled peptide 100 μM, 24 hours, C666.1 and HeLa/LMP1. Here is the method:
as §1

For assay [3], the target named is B2. The assay can be described thus: ELISA; B1 peptide (100 µg) coated on the plate; about 1 × 10^10 pfu of phage clone added, 1 hour at room temperature; ten washes with 0.5% TBST; anti-M13 antibody and HRP anti-mouse, ABTS. Conditions: both partners purified. (In general: ELISA stands for enzyme-linked immunosorbent assay.)
The assay “B1.12 peptide” has as its target B3. The assay can be described thus: ITC; 30 °C, NaHCO3 buffer 0.1 M pH 5.7; B1 peptide (0.2 mM) in the syringe injected (2 µL per injection) into B1.12 peptide (0.01 mM) in the cell. Conditions: both partners purified.
In assay [4] the target is Latent membrane protein 1 (LMP1) on HeLa/LMP1 cells (Epstein-Barr virus) (UniProt P03230). The assay can be described thus: ELISA; competitive inhibition on HeLa/LMP1 cells fixed with 4% paraformaldehyde (10^4 cells/well); synthetic peptide 50-200 µM at 37 °C for 1 hour, then B1.12 phage; anti-M13 antibody detection.
Assay [5] addresses B2. The assay can be described thus: ELISA; competitive inhibition: B1 peptide coated (100 µl of 1 mg/mL in NaHCO3); B1.12 peptide incubated 1 hour at room temperature, then B1.12 phage (2 × 10^10 pfu) 1 hour; bound phage detected by anti-M13 antibody. Conditions: both partners purified.

*: point of attachment. FITC = O=C1OC2(c3ccc(O)cc3Oc3cc(O)ccc32)c2ccc(NC(=S)*)cc21

Latent membrane protein 1 (LMP1) on HeLa/LMP1 cells (Epstein-Barr virus), sequence (P03230 whole entry): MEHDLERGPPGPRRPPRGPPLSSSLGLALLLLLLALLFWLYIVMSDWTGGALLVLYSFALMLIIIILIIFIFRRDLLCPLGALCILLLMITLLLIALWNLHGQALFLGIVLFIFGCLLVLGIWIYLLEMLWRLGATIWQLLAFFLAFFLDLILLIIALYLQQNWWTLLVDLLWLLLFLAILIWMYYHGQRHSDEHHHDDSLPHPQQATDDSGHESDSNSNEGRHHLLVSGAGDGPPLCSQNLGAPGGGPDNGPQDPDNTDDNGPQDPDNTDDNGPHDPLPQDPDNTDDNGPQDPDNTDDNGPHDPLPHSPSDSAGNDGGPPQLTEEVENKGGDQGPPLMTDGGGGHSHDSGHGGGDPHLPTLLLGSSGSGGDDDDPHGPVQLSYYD

With “FITC-labeled B1.12 peptide: N-terminus FITC labeled B1.12 ({FITC}-ACPLDLRSPCG-NH2; cysteine pairing not given here)”, the cellular binding/uptake result in assay [1] is reported as “no binding”. For the same molecule, in the assay with C666.1 cells, the “colocalization with LMP1” value is on record as “co-localized with LMP1”. Besides, the “binding to cells (microscopy)” value with HeLa/Gpt cells is listed as “no binding was observed”. For the same molecule, in assay [2], the cellular uptake entry is reported as “significantly higher uptake”.

B1: B1.12 phage clone (other)
chain: ACPLDLRSPCGGGS
notes: whole phage particles were used and detected with an anti-M13 antibody; also called phage B1.12; positive phage B1.12; source: M13 phage clone from the Ph.D.-C7C library (New England Biolabs), amplified in E. coli ER2738 and titrated; not shown: M13 coat protein pIII (on the phage particle), C-terminal, kept
In the case of B1, the binding result in assay [3] is given as “binds”.

As for B2, the binding result in the assay with B1.12 peptide is “binds”.

As for B3, in assay [4], the inhibition ratio of phage B1.12 binding at 100 µM peptide is 45%. In assay [5], the “inhibition ratio of phage B1.12 binding at 400 µM peptide” value is about 43%.
